Assay: Solid state stability testing on storage
Format: physicochemical
Protocol: Samples (20 and 80 mg each) of the Form A material produced by the process of Example 7 were stored at 25° C. and 60% relative humidity and at 40° C. and 75% relative humidity in open containers and in closed containers.
X-ray powder diffraction patterns were obtained with a Shimadzu 6000 diffractometer using Cu Kα (40.0 kV, 35.0 mA) radiation. The analysis was performed with the goniometer running in continuous-scan mode of 2°/min with a step size of 0.020 over a range of 4 to 45°. Samples were prepared on glass specimen holders as a thin layer of powdered material. The instruments was calibrated to a silicon metal standard.
Differential scanning calorimetry traces were obtained with a TA instruments model DSCQ10. Samples were placed in sealed aluminum pans for analysis with an empty pan serving as the reference. Samples were equilibrated at 30° C. and heated at 5° C. per minute to a temperature of 300° C. The instrument was calibrated with an indium standard.
Thermogravimetric analysis was conducted using a TA instruments model Q50. Samples were weighed in aluminum pans and heated from 30° C. to 300° C. at a rate of 5° C./min.
HPLC analysis was performed using reverse phase conditions and a gradient of 2% to 90% acetonitrile over 6 minutes. Solvents contain 0.1% trifluoroacetic acid. Column: Zorbax 2.1×50 mm, flow rate 0.5 mL/min, observed wavelength 214 nm.

[1] = solid stored four weeks at 25° C. and 60% relative humidity in closed containers

## COc1ccc(Nc2ccc(CCNC[C@H](O)c3ccc(O)c4[nH]c(=O)ccc34)cc2)cc1-c1ccccc1.Cl [Form A, N-{2-[4-(3-phenyl-4-methoxyphenyl)aminophenyl]ethyl}-(R)-2-hydroxy-2-(8-hydroxy-2(1H)-quinolinon-5-yl)ethylamine monohydrochloride water/isopropanol solvate]
Four weeks at 25° C. and 60% humidity in closed containers
  stability upon storage (HPLC degradant peaks; DSC, TGA and XRPD traces): stable
[1]
  changes in analysis by DSC and TGA: no detectable differences
  chemical degradation, analysis by HPLC: no detectable chemical degradation
Solid stored in open containers over four weeks (25° C./60% RH and 40° C./75% RH)
  solvent content on storage in open containers: loss of isopropanol
